Measurements taken from the supplement of paper PMC11451515.

Assays:
Details in all cases: 48 h
NOMO1 [1] = assay: cell viability relative to DMSO control; higher = less cytotoxic
In short: (§1)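 Viability is expressed as a percentage of DMSO wells within each plate, and cell-free wells serve as background. Seeding densities in the 1536-well plates (5 μl) were 500 cells/well for NOMO1 or SEM leukemia cells and 1000 cells/well for P12-Ichikawa. Each line was adapted for at least four passages in each medium. Library compounds in DMSO were pin-dosed at 47 μM to 0.79 nM (11 points, threefold), and CellTiter-Glo One luminescence was read after 48 h at 37°C.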

P12-Ichikawa [2] = assay: as above
In short: as §1

SEM cells [3] = assay: as above
In short: as §1

NOMO1 [4] = assay: AUC of viability dose-response curve (% viability x log10 dose units); higher = less sensitive
In short: (§2)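 Leukemia cells adapted to each medium (500 or 1000 cells/well, 1536-well plates) were exposed to library compounds in DMSO for 48 h at 37°C at 11 threefold doses, 47 μM to 0.79 nM. Luminescence by CellTiter-Glo One was normalised per plate to DMSO and cell-free wells, then fitted with a four-parameter log-logistic curve on log10 dose. Curves above full viability were scaled and quality-control failures removed before area under the curve was integrated by trapezoidal rule.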

P12-Ichikawa [5] = assay: as above
In short: as §2

SEM cells [6] = assay: as above
In short: as §2

CN(C)c1ccc(-c2nc3c(N4CCN(CC(=O)Nc5nccs5)CC4)c(Cl)cnc3[nH]2)cc1
cell viability [%]
Details | NOMO1 [1] | P12-Ichikawa [2] | SEM cells [3]
HPLM + 10% dialyzed FBS, 0.000781 µM | 117 | 109 | 129
HPLM + 10% dialyzed FBS, 0.00234 µM | 130 | 107 | 102
HPLM + 10% dialyzed FBS, 0.00702 µM | 121 | 118 | 115
HPLM + 10% dialyzed FBS, 0.0211 µM | 124 | 110 | 112
HPLM + 10% dialyzed FBS, 0.0632 µM | 113 | 113 | 115
HPLM + 10% dialyzed FBS, 0.19 µM | 127 | 117 | 112
HPLM + 10% dialyzed FBS, 0.569 µM | 112 | 115 | 109
HPLM + 10% dialyzed FBS, 1.71 µM | 102 | 109 | 86.9
HPLM + 10% dialyzed FBS, 5.12 µM | 101 | 108 | 105
HPLM + 10% dialyzed FBS, 15.4 µM | 89.9 | 102 | 80
HPLM + 10% dialyzed FBS, 46.1 µM | 69.2 | 103 | 58.8
RPMI 5 mM glucose + 10% FBS, 0.000781 µM | 102 | 113 | 103
RPMI 5 mM glucose + 10% FBS, 0.00234 µM | 99.3 | 114 | 118
RPMI 5 mM glucose + 10% FBS, 0.00702 µM | 98.6 | 116 | 130
RPMI 5 mM glucose + 10% FBS, 0.0211 µM | 94.6 | 131 | 107
RPMI 5 mM glucose + 10% FBS, 0.0632 µM | 101 | 109 | 106
RPMI 5 mM glucose + 10% FBS, 0.19 µM | 108 | 125 | 124
RPMI 5 mM glucose + 10% FBS, 0.569 µM | 93.6 | 111 | 107
RPMI 5 mM glucose + 10% FBS, 1.71 µM | 109 | 115 | 87.7
RPMI 5 mM glucose + 10% FBS, 5.12 µM | 103 | 118 | 92.5
RPMI 5 mM glucose + 10% FBS, 15.4 µM | 89.9 | 95.9 | 70.3
RPMI 5 mM glucose + 10% FBS, 46.1 µM | 77.7 | 103 | 51.2
RPMI 5 mM glucose + 10% dialyzed FBS, 0.000781 µM | 108 | – | 105
RPMI 5 mM glucose + 10% dialyzed FBS, 0.00234 µM | 107 | – | 121
RPMI 5 mM glucose + 10% dialyzed FBS, 0.00702 µM | 103 | – | 120
RPMI 5 mM glucose + 10% dialyzed FBS, 0.0211 µM | 108 | – | 116
RPMI 5 mM glucose + 10% dialyzed FBS, 0.0632 µM | 113 | – | 107
RPMI 5 mM glucose + 10% dialyzed FBS, 0.19 µM | 106 | – | 111
RPMI 5 mM glucose + 10% dialyzed FBS, 0.569 µM | 101 | – | 102
RPMI 5 mM glucose + 10% dialyzed FBS, 1.71 µM | 107 | – | 89.7
RPMI 5 mM glucose + 10% dialyzed FBS, 5.12 µM | 98.3 | – | 97.9
RPMI 5 mM glucose + 10% dialyzed FBS, 15.4 µM | 94.8 | – | 71.1
RPMI 5 mM glucose + 10% dialyzed FBS, 46.1 µM | 70.3 | – | 49.6

AUC of viability dose-response curve
Details | NOMO1 [4] | P12-Ichikawa [5] | SEM cells [6]
HPLM + 10% dialyzed FBS | 431 | 468 | 429
RPMI 5 mM glucose + 10% FBS | 466 | 466 | 420
RPMI 5 mM glucose + 10% dialyzed FBS | 460 | 428 | 421

C[C@@H](Cc1cc2c(c(C(N)=O)c1)N(CCCO)CC2)NCCOc1ccccc1OCC(F)(F)F
cell viability [%]
Details | NOMO1 [1] | P12-Ichikawa [2] | SEM cells [3]
HPLM + 10% dialyzed FBS, 0.000781 µM | 94.5 | 91.9 | 86.8
HPLM + 10% dialyzed FBS, 0.00234 µM | 99.7 | 115 | 85.3
HPLM + 10% dialyzed FBS, 0.00702 µM | 101 | 101 | 76.7
HPLM + 10% dialyzed FBS, 0.0211 µM | 120 | 116 | 82.9
HPLM + 10% dialyzed FBS, 0.0632 µM | 107 | 113 | 99
HPLM + 10% dialyzed FBS, 0.19 µM | 123 | 112 | 96.7
HPLM + 10% dialyzed FBS, 0.569 µM | 122 | 119 | 95.5
HPLM + 10% dialyzed FBS, 1.71 µM | 135 | 114 | 97.3
HPLM + 10% dialyzed FBS, 5.12 µM | 111 | 112 | 101
HPLM + 10% dialyzed FBS, 15.4 µM | 114 | 118 | 98.1
HPLM + 10% dialyzed FBS, 46.1 µM | 113 | 110 | 88.7
RPMI 5 mM glucose + 10% FBS, 0.000781 µM | 94.5 | 99.4 | 95.1
RPMI 5 mM glucose + 10% FBS, 0.00234 µM | 105 | 111 | 111
RPMI 5 mM glucose + 10% FBS, 0.00702 µM | 107 | 106 | 114
RPMI 5 mM glucose + 10% FBS, 0.0211 µM | 106 | 130 | 112
RPMI 5 mM glucose + 10% FBS, 0.0632 µM | 112 | 116 | 119
RPMI 5 mM glucose + 10% FBS, 0.19 µM | 109 | 123 | 107
RPMI 5 mM glucose + 10% FBS, 0.569 µM | 110 | 115 | 121
RPMI 5 mM glucose + 10% FBS, 1.71 µM | 105 | 101 | 101
RPMI 5 mM glucose + 10% FBS, 5.12 µM | 116 | 112 | 102
RPMI 5 mM glucose + 10% FBS, 15.4 µM | 110 | 117 | 110
RPMI 5 mM glucose + 10% FBS, 46.1 µM | 106 | 102 | 99.2
RPMI 5 mM glucose + 10% dialyzed FBS, 0.000781 µM | 89.4 | 90.4 | 93.4
RPMI 5 mM glucose + 10% dialyzed FBS, 0.00234 µM | 106 | 104 | 98.3
RPMI 5 mM glucose + 10% dialyzed FBS, 0.00702 µM | 106 | 103 | 101
RPMI 5 mM glucose + 10% dialyzed FBS, 0.0211 µM | 104 | 105 | 110
RPMI 5 mM glucose + 10% dialyzed FBS, 0.0632 µM | 126 | 111 | 123
RPMI 5 mM glucose + 10% dialyzed FBS, 0.19 µM | 115 | 109 | 118
RPMI 5 mM glucose + 10% dialyzed FBS, 0.569 µM | 109 | 109 | 111
RPMI 5 mM glucose + 10% dialyzed FBS, 1.71 µM | 121 | 110 | 142
RPMI 5 mM glucose + 10% dialyzed FBS, 5.12 µM | 116 | 99.4 | 110
RPMI 5 mM glucose + 10% dialyzed FBS, 15.4 µM | 105 | 109 | 110
RPMI 5 mM glucose + 10% dialyzed FBS, 46.1 µM | 104 | 97.5 | 82.9

AUC of viability dose-response curve
Details | NOMO1 [4] | P12-Ichikawa [5] | SEM cells [6]
HPLM + 10% dialyzed FBS | 457 | 472 | 438
RPMI 5 mM glucose + 10% FBS | 458 | 472 | 465
RPMI 5 mM glucose + 10% dialyzed FBS | 466 | 472 | 463

COc1cc(C[C@@H](CO)[C@H](CO)Cc2ccc(O)c(OC)c2)ccc1O
cell viability [%]
Details | NOMO1 [1] | P12-Ichikawa [2] | SEM cells [3]
HPLM + 10% dialyzed FBS, 0.000781 µM | 97.7 | 94.8 | 84
HPLM + 10% dialyzed FBS, 0.00234 µM | 99.3 | 102 | 89.3
HPLM + 10% dialyzed FBS, 0.00702 µM | 97.2 | 100 | 92.1
HPLM + 10% dialyzed FBS, 0.0211 µM | 123 | 105 | 95
HPLM + 10% dialyzed FBS, 0.0632 µM | 112 | 106 | 104
HPLM + 10% dialyzed FBS, 0.19 µM | 122 | 116 | 109
HPLM + 10% dialyzed FBS, 0.569 µM | 126 | 112 | 114
HPLM + 10% dialyzed FBS, 1.71 µM | 108 | 111 | 107
HPLM + 10% dialyzed FBS, 5.12 µM | 107 | 104 | 111
HPLM + 10% dialyzed FBS, 15.4 µM | 101 | 99.6 | 89.1
HPLM + 10% dialyzed FBS, 46.1 µM | 104 | 115 | 105
RPMI 5 mM glucose + 10% FBS, 0.000781 µM | 107 | 99.4 | 91.8
RPMI 5 mM glucose + 10% FBS, 0.00234 µM | 118 | 95.1 | 85.1
RPMI 5 mM glucose + 10% FBS, 0.00702 µM | 101 | 108 | 88.4
RPMI 5 mM glucose + 10% FBS, 0.0211 µM | 111 | 109 | 81.8
RPMI 5 mM glucose + 10% FBS, 0.0632 µM | 103 | 109 | 91.7
RPMI 5 mM glucose + 10% FBS, 0.19 µM | 108 | 111 | 105
RPMI 5 mM glucose + 10% FBS, 0.569 µM | 106 | 118 | 106
RPMI 5 mM glucose + 10% FBS, 1.71 µM | 97.2 | 119 | 104
RPMI 5 mM glucose + 10% FBS, 5.12 µM | 104 | 114 | 105
RPMI 5 mM glucose + 10% FBS, 15.4 µM | 94.4 | 117 | 110
RPMI 5 mM glucose + 10% FBS, 46.1 µM | 102 | 110 | 93.3
RPMI 5 mM glucose + 10% dialyzed FBS, 0.000781 µM | 95.8 | 109 | 85.7
RPMI 5 mM glucose + 10% dialyzed FBS, 0.00234 µM | 111 | 112 | 92.7
RPMI 5 mM glucose + 10% dialyzed FBS, 0.00702 µM | 113 | 113 | 98.1
RPMI 5 mM glucose + 10% dialyzed FBS, 0.0211 µM | 107 | 118 | 99.7
RPMI 5 mM glucose + 10% dialyzed FBS, 0.0632 µM | 118 | 118 | 113
RPMI 5 mM glucose + 10% dialyzed FBS, 0.19 µM | 110 | 122 | 102
RPMI 5 mM glucose + 10% dialyzed FBS, 0.569 µM | 107 | 119 | 105
RPMI 5 mM glucose + 10% dialyzed FBS, 1.71 µM | 107 | 133 | 112
RPMI 5 mM glucose + 10% dialyzed FBS, 5.12 µM | 104 | 134 | 108
RPMI 5 mM glucose + 10% dialyzed FBS, 15.4 µM | 103 | 136 | 108
RPMI 5 mM glucose + 10% dialyzed FBS, 46.1 µM | 112 | 125 | 110

AUC of viability dose-response curve
Details | NOMO1 [4] | P12-Ichikawa [5] | SEM cells [6]
HPLM + 10% dialyzed FBS | 467 | 464 | 452
RPMI 5 mM glucose + 10% FBS | 456 | 457 | 444
RPMI 5 mM glucose + 10% dialyzed FBS | 476 | 439 | 455
